Ki data for 29 molecules are collected here from US8796289B2 (AbbVie Inc., priority 2011, dated 2014).

The target of the first assay is GST-tagged-Wee1 kinase (Homo sapiens, UniProt P30291). The assay can be described thus: Wee1 time-resolved fluorescence equilibrium binding assay (displacement of Oregon Green-labeled ATP-competitive kinase probe).
Chain of GST-tagged-Wee1 kinase (P30291 whole entry): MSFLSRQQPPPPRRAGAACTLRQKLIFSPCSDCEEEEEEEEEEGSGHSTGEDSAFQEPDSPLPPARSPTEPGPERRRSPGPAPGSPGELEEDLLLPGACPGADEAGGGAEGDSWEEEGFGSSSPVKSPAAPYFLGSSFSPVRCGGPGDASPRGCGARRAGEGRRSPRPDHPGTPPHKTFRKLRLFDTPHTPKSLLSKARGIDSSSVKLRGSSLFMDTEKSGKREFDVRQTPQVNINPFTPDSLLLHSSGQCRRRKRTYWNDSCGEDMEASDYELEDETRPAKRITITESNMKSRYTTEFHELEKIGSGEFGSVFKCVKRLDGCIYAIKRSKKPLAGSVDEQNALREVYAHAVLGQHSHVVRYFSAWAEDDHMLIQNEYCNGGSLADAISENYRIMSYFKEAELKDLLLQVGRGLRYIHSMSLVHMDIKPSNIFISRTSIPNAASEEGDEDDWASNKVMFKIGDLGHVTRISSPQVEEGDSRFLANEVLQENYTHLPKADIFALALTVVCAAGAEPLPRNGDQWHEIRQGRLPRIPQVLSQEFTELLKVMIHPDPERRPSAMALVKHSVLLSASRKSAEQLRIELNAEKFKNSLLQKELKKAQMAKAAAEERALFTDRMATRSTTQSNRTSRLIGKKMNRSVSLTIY
Settings: not given
The procedure: Wee1 kinase was assayed using a time-resolved fluorescence equilibrium binding assay monitoring displacement of a rapidly reversible Oregon Green-labeled ATP-competitive kinase probe (N-(2-(2-(2-(4-(4-(5-chloro-4-(2-(1-hydroxycyclobutyl)thiazol-5-yl)-1H-pyrrolo[2,3-b]pyridin-2-yl)phenyl)piperazin-1-yl)ethoxy)ethoxy)ethyl)-2′,7′-difluoro-3′,6′-dihydroxy-3-oxo-3H-spiro[isobenzofuran-1,9′-xanthene]-5-carboxamide) by competitive Wee1 inhibitors.
`COCc1nn(-c2c(Cl)cccc2Cl)c(=O)c2cnc(Nc3ccc(N4CCNCC4)cc3)nc12` [Example 424, 6-(2,6-dichlorophenyl)-8-(methoxymethyl)-2-{[4-(piperazin-1-yl)phenyl]amino}pyrimido[4,5-d]pyridazin-5(6H)-one]: the affinity corresponds to a Ki of 0.4 nM.
Same read-out and setting: the same measure for `CN1CCN(c2ccc(Nc3ncc4c(=O)n(-c5ccccc5Cl)nc(CCc5ccccc5)c4n3)cc2)CC1` [Example 24, 6-(2-chlorophenyl)-2-{[4-(4-methylpiperazin-1-yl)phenyl]amino}-8-(2-phenylethyl)pyrimido[4,5-d]pyridazin-5(6H)-one]: 2 nM; for `CC1(C)CNCc2cc(Nc3ncc4c(=O)n(-c5c(Cl)cccc5Cl)nc(-c5ccccn5)c4n3)ccc21` [Example 263, 6-(2,6-dichlorophenyl)-2-[(4,4-dimethyl-1,2,3,4-tetrahydroisoquinolin-7-yl)amino]-8-(pyridin-2-yl)pyrimido[4,5-d]pyridazin-5(6H)-one]: 0.3 nM; for `CN1CCN(c2ccc(Nc3ncc4c(=O)n(-c5c(F)cccc5Cl)nc(-c5ccncc5)c4n3)cc2)CC1` [Example 296, 6-(2-chloro-6-fluorophenyl)-2-{[4-(4-methylpiperazin-1-yl)phenyl]amino}-8-(pyridin-4-yl)pyrimido[4,5-d]pyridazin-5(6H)-one]: 0.27 nM.
On the same count and under the same terms, the same measure for `Cc1nn(-c2c(Cl)cccc2Cl)c(=O)c2cnc(Nc3ccc4c(c3)CNC(=O)C4)nc12` [Example 467, 6-(2,6-dichlorophenyl)-8-methyl-2-[(3-oxo-1,2,3,4-tetrahydroisoquinolin-7-yl)amino]pyrimido[4,5-d]pyridazin-5(6H)-one]: 0.47 nM; for `CN1Cc2cc(Nc3ncc4c(=O)n(-c5c(Cl)cccc5Cl)nc(-c5cccnc5)c4n3)ccc2C2(CC2)C1` [Example 101, 6-(2,6-dichlorophenyl)-2-[(2′-methyl-2′,3′-dihydro-1′H-spiro[cyclopropane-1,4′-isoquinolin]-7′-yl)amino]-8-(pyridin-3-yl)pyrimido[4,5-d]pyridazin-5(6H)-one]: 0.02 nM.
Same read-out and setting: then `CCOc1cccc(-c2nn(-c3c(F)cccc3Cl)c(=O)c3cnc(Nc4ccc(N5CCN(C)CC5)cc4)nc23)n1` [Example 299, 6-(2-chloro-6-fluorophenyl)-8-(6-ethoxypyridin-2-yl)-2-{[4-(4-methylpiperazin-1-yl)phenyl]amino}pyrimido[4,5-d]pyridazin-5(6H)-one], with 0.99 nM; and `Cc1nn(-c2c(Cl)cccc2Cl)c(=O)c2cnc(Nc3ccc4c(c3)CN(CC(F)(F)F)CC4(C)C)nc12` [Example 370, 6-(2,6-dichlorophenyl)-2-{[4,4-dimethyl-2-(2,2,2-trifluoroethyl)-1,2,3,4-tetrahydroisoquinolin-7-yl]amino}-8-methylpyrimido[4,5-d]pyridazin-5(6H)-one], with 35 nM.
Molecule `Cc1cc(Nc2ncc3c(=O)n(-c4ncccc4Cl)nc(C)c3n2)ccc1N1CCCN(C)CC1` [Example 369, 6-(3-chloropyridin-2-yl)-8-methyl-2-(3-methyl-4-(4-methyl-1,4-diazepan-1-yl)phenylamino)pyridazino[4,5-d]pyrimidin-5(6H)-one] gave a Ki of 1.8 nM.
The molecule `CCc1nn(-c2c(Cl)cccc2Cl)c(=O)c2cnc(Nc3ccc(CN4CCN(C)CC4)cc3)nc12` [Example 465, 6-(2,6-dichlorophenyl)-8-ethyl-2-({4-[(4-methylpiperazin-1-yl)methyl]phenyl}amino)pyrimido[4,5-d]pyridazin-5(6H)-one] gave a Ki of 0.88 nM.
Same read-out and setting: the same measure for `CN1CCN(c2ccc(Nc3ncc4c(=O)n(-c5c(Cl)cccc5Cl)nc(C5CCCNC5)c4n3)cc2)CC1` (centres unmarked) [Example 105, 6-(2,6-dichlorophenyl)-2-{[4-(4-methylpiperazin-1-yl)phenyl]amino}-8-(piperidin-3-yl)pyrimido[4,5-d]pyridazin-5(6H)-one]: 4 nM; for `CN1CCN(c2ccc(Nc3ncc4c(=O)n(-c5ccccc5)nc(-c5ccccn5)c4n3)cc2)CC1` [Example 102, 2-{[4-(4-methylpiperazin-1-yl)phenyl]amino}-6-phenyl-8-(pyridin-2-yl)pyrimido[4,5-d]pyridazin-5(6H)-one]: 6 nM.
Still for that read-out and setting: then `C=CCn1nc(-c2cccs2)c2nc(Nc3ccc(N4CCCN(C(C)C)CC4)c(C)c3)ncc2c1=O` [Example 163, 6-allyl-2-{[4-(4-isopropyl-1,4-diazepan-1-yl)-3-methylphenyl]amino}-8-(2-thienyl)pyrimido[4,5-d]pyridazin-5(6H)-one], with 4 nM.
Still for that read-out and setting: then `CN1CCN(c2ccc(Nc3ncc4c(=O)n(-c5ccccc5Cl)nc(-c5ccoc5)c4n3)cc2)CC1` [Example 94, 6-(2-chlorophenyl)-8-(3-furyl)-2-{[4-(4-methylpiperazin-1-yl)phenyl]amino}pyrimido[4,5-d]pyridazin-5(6H)-one], with 0.5 nM; and `CN1Cc2cc(Nc3ncc4c(=O)n(-c5c(Cl)cccc5Cl)nc(-c5ccccn5)c4n3)ccc2C2(CC2)C1` [Example 104, 6-(2,6-dichlorophenyl)-2-[(2′-methyl-2′,3′-dihydro-1′H-spiro[cyclopropane-1,4′-isoquinolin]-7′-yl)amino]-8-(pyridin-2-yl)pyrimido[4,5-d]pyridazin-5(6H)-one], with 0.6 nM.
Consider `Cc1cc(Nc2ncc3c(=O)n(-c4ccccc4C)nc(-c4ccco4)c3n2)ccc1N1CCN(C(C)C)CC1` [Example 133, 8-(2-furyl)-2-{[4-(4-isopropylpiperazin-1-yl)-3-methylphenyl]amino}-6-(2-methylphenyl)pyrimido[4,5-d]pyridazin-5(6H)-one], for which the Ki was 3 nM.
Same read-out and setting: the same measure for `CN1CCN(c2ccc(Nc3ncc4c(=O)n(-c5c(Cl)cccc5Cl)nc(C(F)(F)F)c4n3)cc2)CC1` [Example 412, 6-(2,6-dichlorophenyl)-2-{[4-(4-methylpiperazin-1-yl)phenyl]amino}-8-(trifluoromethyl)pyrimido[4,5-d]pyridazin-5(6H)-one]: 1 nM; for `Cc1nn(-c2ncccc2Cl)c(=O)c2cnc(Nc3ccc(N4CCNCC4)cc3)nc12` [Example 399, 6-(3-chloropyridin-2-yl)-8-methyl-2-{[4-(piperazin-1-yl)phenyl]amino}pyrimido[4,5-d]pyridazin-5(6H)-one]: 18 nM.
Same read-out and setting: the same measure for `CN1CCCC(c2ccc(Nc3ncc4c(=O)n(-c5c(Cl)cccc5Cl)nc(C(F)F)c4n3)cc2)C1` (centres unmarked) [Example 486, 6-(2,6-dichlorophenyl)-8-(difluoromethyl)-2-{[4-(1-methylpiperidin-3-yl)phenyl]amino}pyrimido[4,5-d]pyridazin-5(6H)-one]: 0.13 nM; for `CN1CCN(c2ccc(Nc3ncc4c(=O)n(-c5ccccc5)nc(-c5ccncn5)c4n3)cc2)CC1` [Example 177, 2-{[4-(4-methylpiperazin-1-yl)phenyl]amino}-6-phenyl-8-(pyrimidin-4-yl)pyrimido[4,5-d]pyridazin-5(6H)-one]: 19 nM.
On the same count and under the same terms, the same measure for `Cn1cnc(-c2nn(-c3ccncc3Cl)c(=O)c3cnc(Nc4ccc5c(c4)CNCC54CC4)nc23)c1` [Example 373, 6-(3-chloropyridin-4-yl)-2-(2′,3′-dihydro-1′H-spiro[cyclopropane-1,4′-isoquinolin]-7′-ylamino)-8-(1-methyl-1H-imidazol-4-yl)pyrimido[4,5-d]pyridazin-5(6H)-one]: 69 nM.
For `CN1CCN(c2ccc(Nc3ncc4c(=O)n(-c5c(Cl)cccc5Cl)nc(-c5cccc(C(=O)N6CCCCC6)c5)c4n3)cc2)CC1` [Example 194, 6-(2,6-dichlorophenyl)-2-{[4-(4-methylpiperazin-1-yl)phenyl]amino}-8-[3-(piperidin-1-ylcarbonyl)phenyl]pyrimido[4,5-d]pyridazin-5(6H)-one], the Ki was less than 1 nM.
Still for that read-out and setting: the same measure for `Cc1ccccc1-n1nc(-c2cccs2)c2nc(Nc3ccc4c(c3)CN(C)CC4)ncc2c1=O` [Example 164, 6-(2-methylphenyl)-2-[(2-methyl-1,2,3,4-tetrahydroisoquinolin-7-yl)amino]-8-(2-thienyl)pyrimido[4,5-d]pyridazin-5(6H)-one]: 0.5 nM.
`C=CCn1nc(-c2cccs2)c2nc(Nc3ccc(N4CCN(C(C)C)CC4)c(C)c3)ncc2c1=O` [Example 127, 6-allyl-2-{[4-(4-isopropylpiperazin-1-yl)-3-methylphenyl]amino}-8-(2-thienyl)pyrimido[4,5-d]pyridazin-5(6H)-one] displayed a Ki of 4 nM.
Same read-out and setting: the same measure for `CN1CCN(c2ccc(Nc3ncc4c(=O)n(-c5ccccn5)nc(C5CC(F)(F)C5)c4n3)cc2)CC1` [Example 197, 8-(3,3-difluorocyclobutyl)-2-{[4-(4-methylpiperazin-1-yl)phenyl]amino}-6-(pyridin-2-yl)pyrimido[4,5-d]pyridazin-5(6H)-one]: 100 nM.
On to `Cc1ccccc1-n1nc(-c2cccs2)c2nc(Nc3ccc4c(c3)CN(C)CC43CC3)ncc2c1=O` [Example 130, 2-[(2′-methyl-2′,3′-dihydro-1′H-spiro[cyclopropane-1,4′-isoquinolin]-7′-yl)amino]-6-(2-methylphenyl)-8-(2-thienyl)pyrimido[4,5-d]pyridazin-5(6H)-one], for which the Ki was found to be 0.4 nM.
Still for that read-out and setting: then `CN1CCN(c2ccc(Nc3ncc4c(=O)n(-c5ccccc5)nc(-c5cccnc5)c4n3)cc2)CC1` [Example 100, 2-{[4-(4-methylpiperazin-1-yl)phenyl]amino}-6-phenyl-8-(pyridin-3-yl)pyrimido[4,5-d]pyridazin-5(6H)-one], with 14 nM; and `CCc1nn(-c2c(Cl)cccc2Cl)c(=O)c2cnc(Nc3ccc4c(c3)CC(N(C)C)C4)nc12` (centres unmarked) [Example 406, 6-(2,6-dichlorophenyl)-2-{[2-(dimethylamino)-2,3-dihydro-1H-inden-5-yl]amino}-8-ethylpyrimido[4,5-d]pyridazin-5(6H)-one], with 0.7 nM.

The same assay, now with this note: read-out: Wee-1 inhibition Ki.
For the molecule “6-(2-chlorophenyl)-2-{[4-(4-methylpiperazin-1-yl)phenyl]amino}-8-(1-methyl-1H-pyrazol-4-yl)pyrimido[4,5-d]pyridazin-5(6H)-one [Example 86]”, the inhibitory constant (Ki) was 1 nM.
